Reference: paper PMC11871066, “Structure-based discovery of hydrocarbon-stapled paxillin peptides that block FAK scaffolding in cancer” (Nature Communications, 2025)
Where two headings read alike, the source gives them in different places. Bridge positions count the residues as written; N and C are the ends. Square brackets hold non-standard residues; d marks the D form. Peptide text beside a SMILES is read from it. * marks the point of attachment. Myristoyl = CCCCCCCCCCCCCC(=O)*; R8 = C=CCCCCCC[C@@](C)(N)C(=O)O; S5 = C=CCCC[C@](C)(N)C(=O)O

Assays:
SK-MEL-147 cells [1] = test: RealTime-Glo Annexin V apoptosis assay; type: cell-based, human; conditions: for induction of apoptosis, time-course: every 24 h over 96 h
Protocol: SK-MEL-147 cells were seeded at 1000 cells/well in 384-well white-walled, clear-bottom plates (Corning). Cells were allowed to adhere overnight. Serial twofold dilutions of drugs were prepared starting at 200 μM. Immediately after adding the drug treatments, 2X RealTime-Glo™ Annexin V Apoptosis detection reagent (Promega) was added. Replicates were also included for the following controls: “no-cell” (negative), vehicle-only controls (negative), and cisplatin (5 μM, positive). […] Dose-response curves and EC50 curves were obtained using GraphPad Prism (version 10.3.1), reporting mean luminescence relative to DMSO ± SD. A minimum of 5 independent biological runs (n = 5) were performed per treatment group. […]
manner via Annexin V apopt osi s ti me -course study. SK -MEL- 147 cells treated with ( a) 2012, (b) 2 0 20, and (c) defactinib are evaluated for apoptosis using RealTime- Glo system for Annexin V binding. EC50 curves representing data obtained every 24 hours, over the course of 96 hours total. EC50 cur ves f it us i ng GraphPad Prism reporting mean ± SD of (a) 7 biological replicates (n=7); (b) 5 biological replicates (n =5); and (c) 5 biological replicates (n =5). Source data are provided as Source Data files.

[2] = molecular target: 97 kinases (kinase named in endpoint) (Homo sapiens, UniProt O14920); test: Eurofins KINOMEscan profiling, 97 kinases; conditions: read-out: % Ctrl, IKK-beta
Sequence of 97 kinases (kinase named in endpoint) (Homo sapiens, UniProt O14920) (O14920 whole entry): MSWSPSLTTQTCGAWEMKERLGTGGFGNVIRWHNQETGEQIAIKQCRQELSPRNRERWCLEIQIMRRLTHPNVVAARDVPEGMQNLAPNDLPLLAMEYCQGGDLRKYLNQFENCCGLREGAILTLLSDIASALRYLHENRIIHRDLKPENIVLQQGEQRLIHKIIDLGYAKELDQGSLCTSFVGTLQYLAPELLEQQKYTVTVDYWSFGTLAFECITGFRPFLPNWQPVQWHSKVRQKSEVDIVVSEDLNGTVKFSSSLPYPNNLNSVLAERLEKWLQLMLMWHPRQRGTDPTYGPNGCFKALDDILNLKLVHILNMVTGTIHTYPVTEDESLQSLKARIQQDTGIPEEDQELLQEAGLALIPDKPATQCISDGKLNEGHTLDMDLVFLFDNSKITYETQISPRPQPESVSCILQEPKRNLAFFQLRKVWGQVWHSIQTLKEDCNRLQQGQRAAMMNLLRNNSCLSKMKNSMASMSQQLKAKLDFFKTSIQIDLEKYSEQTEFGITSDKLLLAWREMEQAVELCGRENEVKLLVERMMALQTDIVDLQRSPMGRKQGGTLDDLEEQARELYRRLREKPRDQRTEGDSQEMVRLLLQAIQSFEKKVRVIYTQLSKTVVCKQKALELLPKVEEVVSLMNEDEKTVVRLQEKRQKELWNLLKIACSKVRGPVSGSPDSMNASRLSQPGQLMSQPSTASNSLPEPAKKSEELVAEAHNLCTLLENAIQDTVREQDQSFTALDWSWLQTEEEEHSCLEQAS

[3] = molecular target: 97 kinases (kinase named in endpoint) (Homo sapiens, UniProt Q9BWU1); test: Eurofins KINOMEscan profiling, 97 kinases; conditions: read-out: % Ctrl, CDK11
Sequence of 97 kinases (kinase named in endpoint) (Homo sapiens, UniProt Q9BWU1) (Q9BWU1 whole entry): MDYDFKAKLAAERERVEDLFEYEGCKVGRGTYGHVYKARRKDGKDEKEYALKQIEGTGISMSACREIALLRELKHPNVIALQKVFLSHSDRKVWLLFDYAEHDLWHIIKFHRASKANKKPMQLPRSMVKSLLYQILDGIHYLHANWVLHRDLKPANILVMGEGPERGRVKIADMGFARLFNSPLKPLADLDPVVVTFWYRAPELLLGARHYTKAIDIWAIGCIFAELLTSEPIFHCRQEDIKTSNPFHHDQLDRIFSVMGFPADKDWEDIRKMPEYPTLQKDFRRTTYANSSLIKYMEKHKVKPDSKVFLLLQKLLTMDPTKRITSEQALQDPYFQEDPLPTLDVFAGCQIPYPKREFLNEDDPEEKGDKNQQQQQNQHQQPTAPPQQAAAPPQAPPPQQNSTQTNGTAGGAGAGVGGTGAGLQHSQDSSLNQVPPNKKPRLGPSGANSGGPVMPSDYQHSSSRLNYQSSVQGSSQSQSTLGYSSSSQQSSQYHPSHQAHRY

[4] = molecular target: 97 kinases (kinase named in endpoint) (Homo sapiens, UniProt Q13873); test: Eurofins KINOMEscan profiling, 97 kinases; conditions: read-out: % Ctrl, BMPR2
Sequence of 97 kinases (kinase named in endpoint) (Homo sapiens, UniProt Q13873) (Q13873 27-1038): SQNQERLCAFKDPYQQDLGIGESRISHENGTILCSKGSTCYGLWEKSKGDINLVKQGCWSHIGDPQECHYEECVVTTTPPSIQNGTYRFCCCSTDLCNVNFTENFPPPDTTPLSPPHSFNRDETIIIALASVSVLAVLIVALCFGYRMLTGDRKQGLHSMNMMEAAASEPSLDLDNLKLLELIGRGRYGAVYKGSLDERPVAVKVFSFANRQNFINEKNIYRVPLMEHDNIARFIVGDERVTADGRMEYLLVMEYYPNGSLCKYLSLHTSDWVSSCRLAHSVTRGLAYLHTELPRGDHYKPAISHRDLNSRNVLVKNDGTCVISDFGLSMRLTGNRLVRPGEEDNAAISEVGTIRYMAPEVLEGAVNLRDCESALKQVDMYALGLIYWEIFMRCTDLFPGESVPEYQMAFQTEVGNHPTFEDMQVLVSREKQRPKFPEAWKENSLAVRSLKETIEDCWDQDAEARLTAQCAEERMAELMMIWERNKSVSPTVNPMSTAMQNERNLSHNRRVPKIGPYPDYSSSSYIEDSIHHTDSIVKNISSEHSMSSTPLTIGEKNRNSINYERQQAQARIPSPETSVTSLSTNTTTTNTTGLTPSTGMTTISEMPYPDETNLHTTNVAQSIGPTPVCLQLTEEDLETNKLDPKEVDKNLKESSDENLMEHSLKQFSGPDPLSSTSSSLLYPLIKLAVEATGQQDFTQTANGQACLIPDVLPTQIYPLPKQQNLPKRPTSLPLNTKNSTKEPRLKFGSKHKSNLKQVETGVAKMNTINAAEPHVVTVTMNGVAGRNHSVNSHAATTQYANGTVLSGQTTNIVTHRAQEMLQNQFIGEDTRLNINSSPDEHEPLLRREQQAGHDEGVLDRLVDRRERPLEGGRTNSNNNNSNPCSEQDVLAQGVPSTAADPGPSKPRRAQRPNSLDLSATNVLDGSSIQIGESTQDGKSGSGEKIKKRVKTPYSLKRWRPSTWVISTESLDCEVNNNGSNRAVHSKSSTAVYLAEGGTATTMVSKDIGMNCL

[5] = molecular target: 97 kinases (kinase named in endpoint) (Homo sapiens, UniProt P15056, V600E); test: Eurofins KINOMEscan profiling, 97 kinases; conditions: read-out: % Ctrl, BRAF(V600E)
Sequence of 97 kinases (kinase named in endpoint) (Homo sapiens, UniProt P15056, V600E) (P15056 whole entry V600E): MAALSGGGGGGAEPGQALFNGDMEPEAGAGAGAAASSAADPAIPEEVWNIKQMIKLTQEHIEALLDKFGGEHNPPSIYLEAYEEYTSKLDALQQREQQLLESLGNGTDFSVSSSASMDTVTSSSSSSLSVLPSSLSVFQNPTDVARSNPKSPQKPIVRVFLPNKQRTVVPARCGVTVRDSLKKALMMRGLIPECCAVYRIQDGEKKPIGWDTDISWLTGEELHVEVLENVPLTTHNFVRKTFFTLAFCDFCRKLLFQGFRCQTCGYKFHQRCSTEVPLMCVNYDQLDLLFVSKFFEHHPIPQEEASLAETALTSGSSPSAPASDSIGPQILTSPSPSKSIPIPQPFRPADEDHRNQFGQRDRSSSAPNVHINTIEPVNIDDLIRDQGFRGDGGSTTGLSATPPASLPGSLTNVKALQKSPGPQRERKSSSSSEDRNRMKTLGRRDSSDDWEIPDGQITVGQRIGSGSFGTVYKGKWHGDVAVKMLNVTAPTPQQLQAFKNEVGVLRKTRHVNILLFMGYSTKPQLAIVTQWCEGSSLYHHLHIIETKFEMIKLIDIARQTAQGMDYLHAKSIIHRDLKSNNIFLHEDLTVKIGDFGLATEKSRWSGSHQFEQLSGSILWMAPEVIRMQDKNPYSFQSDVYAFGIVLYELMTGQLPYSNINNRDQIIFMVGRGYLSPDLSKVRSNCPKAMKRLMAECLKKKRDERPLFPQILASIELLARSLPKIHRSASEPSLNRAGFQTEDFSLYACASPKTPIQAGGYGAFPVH

[6] = molecular target: 97 kinases (kinase named in endpoint) (Homo sapiens, UniProt P49137); test: Eurofins KINOMEscan profiling, 97 kinases; conditions: read-out: % Ctrl, MAPKAPK2
Sequence of 97 kinases (kinase named in endpoint) (Homo sapiens, UniProt P49137) (P49137 whole entry): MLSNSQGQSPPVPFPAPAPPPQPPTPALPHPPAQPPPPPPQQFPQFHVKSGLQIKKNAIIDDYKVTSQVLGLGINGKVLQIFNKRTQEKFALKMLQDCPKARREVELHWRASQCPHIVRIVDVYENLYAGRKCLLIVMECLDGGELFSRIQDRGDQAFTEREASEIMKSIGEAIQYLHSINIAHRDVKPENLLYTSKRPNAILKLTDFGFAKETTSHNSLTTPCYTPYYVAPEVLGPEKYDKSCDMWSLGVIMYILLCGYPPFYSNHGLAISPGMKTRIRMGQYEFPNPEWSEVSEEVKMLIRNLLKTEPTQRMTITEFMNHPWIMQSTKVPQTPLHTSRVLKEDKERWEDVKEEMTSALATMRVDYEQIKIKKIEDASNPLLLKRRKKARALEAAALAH

[7] = molecular target: 97 kinases (kinase named in endpoint) (Homo sapiens, UniProt O14757); test: Eurofins KINOMEscan profiling, 97 kinases; conditions: read-out: % Ctrl, CHEK1
Sequence of 97 kinases (kinase named in endpoint) (Homo sapiens, UniProt O14757) (O14757 whole entry): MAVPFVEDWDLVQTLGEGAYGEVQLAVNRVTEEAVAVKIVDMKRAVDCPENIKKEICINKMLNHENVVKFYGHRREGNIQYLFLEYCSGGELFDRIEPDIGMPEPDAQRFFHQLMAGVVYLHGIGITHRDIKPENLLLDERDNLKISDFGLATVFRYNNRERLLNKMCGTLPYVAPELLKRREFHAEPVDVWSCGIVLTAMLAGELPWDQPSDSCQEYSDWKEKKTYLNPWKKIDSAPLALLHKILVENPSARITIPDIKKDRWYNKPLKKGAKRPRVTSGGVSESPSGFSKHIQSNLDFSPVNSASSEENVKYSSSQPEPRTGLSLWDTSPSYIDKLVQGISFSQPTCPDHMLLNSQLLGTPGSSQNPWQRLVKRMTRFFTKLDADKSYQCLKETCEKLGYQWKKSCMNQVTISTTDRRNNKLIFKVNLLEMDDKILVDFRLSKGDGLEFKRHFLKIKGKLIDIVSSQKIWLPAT

[8] = molecular target: 97 kinases (kinase named in endpoint) (Homo sapiens, UniProt Q15831); test: Eurofins KINOMEscan profiling, 97 kinases; conditions: read-out: % Ctrl, LKB1
Sequence of 97 kinases (kinase named in endpoint) (Homo sapiens, UniProt Q15831) (Q15831 whole entry): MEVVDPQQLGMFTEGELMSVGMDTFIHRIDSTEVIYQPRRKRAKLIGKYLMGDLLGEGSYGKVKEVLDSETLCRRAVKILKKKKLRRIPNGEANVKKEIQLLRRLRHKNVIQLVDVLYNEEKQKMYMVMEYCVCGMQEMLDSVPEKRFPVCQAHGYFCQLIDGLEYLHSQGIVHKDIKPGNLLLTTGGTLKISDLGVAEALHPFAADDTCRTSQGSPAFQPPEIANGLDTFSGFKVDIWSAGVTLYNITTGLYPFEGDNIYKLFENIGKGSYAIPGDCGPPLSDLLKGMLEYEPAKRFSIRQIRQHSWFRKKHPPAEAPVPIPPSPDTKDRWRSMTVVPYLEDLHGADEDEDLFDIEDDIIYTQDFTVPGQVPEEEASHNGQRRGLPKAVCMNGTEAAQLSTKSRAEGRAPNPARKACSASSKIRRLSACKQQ

[9] = molecular target: 97 kinases (kinase named in endpoint) (Homo sapiens, UniProt P24941); test: Eurofins KINOMEscan profiling, 97 kinases; conditions: read-out: % Ctrl, CDK2
[10] = molecular target: 97 kinases (kinase named in endpoint) (Homo sapiens, UniProt Q9BUB5); test: Eurofins KINOMEscan profiling, 97 kinases; conditions: read-out: % Ctrl, MKNK1
Sequence of 97 kinases (kinase named in endpoint) (Homo sapiens, UniProt Q9BUB5) (Q9BUB5 whole entry): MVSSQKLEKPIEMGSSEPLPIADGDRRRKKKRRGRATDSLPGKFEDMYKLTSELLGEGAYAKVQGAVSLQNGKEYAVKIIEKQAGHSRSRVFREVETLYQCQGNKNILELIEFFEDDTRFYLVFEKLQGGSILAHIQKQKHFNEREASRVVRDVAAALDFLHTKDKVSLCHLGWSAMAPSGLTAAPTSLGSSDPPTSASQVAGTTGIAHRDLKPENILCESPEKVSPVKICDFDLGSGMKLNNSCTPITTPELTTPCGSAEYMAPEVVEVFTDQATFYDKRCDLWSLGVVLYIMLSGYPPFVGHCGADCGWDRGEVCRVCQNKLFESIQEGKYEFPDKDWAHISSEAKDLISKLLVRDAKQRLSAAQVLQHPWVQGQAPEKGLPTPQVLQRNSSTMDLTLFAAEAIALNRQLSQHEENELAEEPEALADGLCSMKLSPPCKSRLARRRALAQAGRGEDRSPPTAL

SK-MEL-147 cells [11] = test: Transwell invasion assay; type: cell-based, human
Protocol: SK-MEL-147 cells were seeded at 400,000 cells/well in six-well plates and allowed to adhere in the incubator overnight. Cells were pretreated with drugs ranging from 200–0.01 μM, and incubated for 48 h. Subsequently, 8.0 μm PET membrane cell culture inserts (Falcon) were coated with 40 μL of 0.3 mg/mL Matrigel (Corning) diluted in serum-free media and incubated at 37 °C/5% CO2 for 5 h to allow the solution to gel. Unbound Matrigel was removed from the inserts, and membranes were rehydrated with serum-containing media for an additional hour. Treated cells were then trypsinized, collected by centrifugation, washed with DPBS, and resuspended in serum-free media. About 50,000 cells per treatment group were seeded into upper chambers with additional serum-free media. 10% FBS-containing media was placed into bottom chambers as a chemoattractant. After 24 h, inserts were then stained with crystal violet (Sigma-Aldrich) and washed with DPBS. Using an ECHO Revolve microscope, bright field images of 6 fields of view for each insert were taken at 10x magnification. The number of invaded cells in each image was quantified using ImageJ (version 1.52a). Bar graphs, dose-response curves, and IC50 values were established using GraphPad Prism (version 10.3.1), reporting the mean number of invaded cells relative to DMSO ± SD.
Transwell invasion assay. Representative brightfield images of invaded SK -MEL- 147 cells on transwell inserts at 10X magnification following peptide treatment. Images show invaded cells after treatment with various concentrations of 2020 (top panel), 2012 (middle panel), and defactinib (bottom panel), in addition to DMSO vehicle-control (left, top panel) and ad- FRNK positive control (left, bottom panel). Bar graphs reveal m ean number of invaded cells ± SD and calculated IC50 values across all dos e s of 2020 (left graph, n=2), 2012 (middle graph, n=6), and defactinib (right graph, n=4 ). All values for ‘n’ represent independent biological replicates. One -way ANOVA analyses and Dunnet’s multiple comparison tests were performed

WM88 cells = test: cells; type: cell-based, human; conditions: 96 h
Protocol: (§1) Cells were seeded at 1000 cells per well in white-walled, clear bottom 96-well plates and allowed to adhere in the incubator for 24 h. […] Treatment doses were created in a 12-or 10-point, twofold serial dilution, starting at 200 μM. After 24 h of treatment, 10% FBS was spiked back into each well and the plate returned to 37 °C […]. After 96 h of drug treatment, the Promega 2D CellTiter-Glo reagent was added to each well at a 1:2 ratio of reagent to treatment media. […] This assay was performed a minimum of 3 (n = 3) times for each cell line, with each run containing a minimum of 3 technical replicates per run. IC50 curves were generated using GraphPad Prism (version 10.3.1), reporting the mean % viability relative to DMSO ± SD.

NHEM cells = test: cells; type: cell-based, human; conditions: 96 h
Protocol: as §1

Hep-G2 cells = test: cells; type: cell-based, human; conditions: 96 h
Protocol: as §1

LX-2 cells = test: cells; type: cell-based, human; conditions: 96 h
Protocol: as §1

SK-MEL-147 cells [12] = test: cells; type: cell-based, human; conditions: 96 h
Protocol: as §1

ONDA7 cells = test: cells; type: cell-based, human; conditions: 96 h
Protocol: as §1

[13] = Homo sapiens, average of n >= 3, read-out: cell viability IC50

Row | SMILES | remaining binding at 1 µM [2] [%] | remaining binding at 1 µM [3] [%] | remaining binding at 1 µM [4] [%] | remaining binding at 1 µM [5] [%] | remaining binding at 1 µM [6] [%] | remaining binding at 1 µM [7] [%] | remaining binding at 1 µM [8] [%] | remaining binding at 1 µM [9] [%] | remaining binding at 1 µM [10] [%] | IC50 (WM88 cells) [µM] | IC50 (NHEM cells) [µM] | IC50 (Hep-G2 cells) [µM] | IC50 (LX-2 cells) [µM] | IC50 (SK-MEL-147 cells [12]) [µM] | IC50 (ONDA7 cells) [µM] | induction of apoptosis, time-course (SK-MEL-147 cells [1]) | also measured
1 | CCCCCCCCCCCCCC(=O)N[C@@H](CC(N)=O)C(=O)N[C@@H](CC(C)C)C(=O)N[C@]1(C)CCCCCCC=CCCC[C@@](C)(C(=O)N[C@@H](CCC(=O)O)C(=O)N[C@@H](CC(C)C)C(=O)N[C@@H](CC(N)=O)C(N)=O)NC(=O)[C@H](CC(C)C)NC(=O)[C@H](CC(C)C)NC(=O)[C@H](CCCNC(=N)N)NC(=O)[C@H](CC(=O)O)NC(=O)[C@H](CC(C)C)NC(=O)[C@H](CCC(=O)O)NC1=O [compound 2012] | 100 | 87 | 100 | 100 | 100 | 98 | 85 | 88 | 100 | 4.42 | > 200 | > 200 | > 200 | 2.36 | 9.79 | – | EC50 (SK-MEL-147 cells [1]; 96 h): 8.3 µM; IC50 (SK-MEL-147 cells [11]; 48 h treatment): 1.8 µM
2 | CCCCCCCCCCCCCC(=O)N[C@@H](CC(N)=O)C(=O)N[C@@H](CC(C)C)C(=O)N[C@]1(C)CCCCCCC=CCCC[C@@](C)(C(=O)N[C@@H](CCC(=O)O)C(=O)N[C@@H](CCC(=O)O)C(=O)N[C@@H](CC(N)=O)C(N)=O)NC(=O)[C@H](CC(C)C)NC(=O)[C@H](CC(C)C)NC(=O)[C@H](CCCNC(=N)N)NC(=O)[C@H](CC(=O)O)NC(=O)[C@H](CCC(=O)O)NC(=O)[C@H](CCC(=O)O)NC1=O [compound 2020] (Myristoyl-NL[R8]EEDRLL[S5]EEN-NH2; staple 3-10) | – | – | – | – | – | – | – | – | – | > 200 | > 200 | > 200 | > 200 | > 200 | > 200 | no effect at any timepoint | invasion IC50 (SK-MEL-147 cells [11]; 48 h treatment): no effect
3 | CNC(=O)c1ccc(Nc2ncc(C(F)(F)F)c(NCc3nccnc3N(C)S(C)(=O)=O)n2)cc1 [defactinib] | 100 | 97 | 25 | 100 | 100 | 99 | 90 | 63 | 100 | – | – | – | – | – | – | no effect at any timepoint | Annexin V apoptosis EC50 (SK-MEL-147 cells [1]; 96 h): did not exhibit a dose-dependent effect; percentage of invaded cells (SK-MEL-147 cells [11]; 2.5 µM): 0%; IC50 (WM88 cells; [13]): 21.2 µM; IC50 (NHEM cells; [13]): > 200 µM; IC50 (Hep-G2 cells; Homo sapiens, HepG2, average of n >= 3, read-out: cell viability IC50): 67 µM; IC50 (LX-2 cells; Homo sapiens, LX-2, average of n >= 3, read-out: cell viability IC50): 2.19 µM; IC50 (SK-MEL-147 cells [12]; Homo sapiens, SK-MEL-147, average of n >= 3, read-out: cell viability IC50): 2.84 µM; IC50 (ONDA7 cells; [13]): 18.9 µM
